Measurements as given in US10329320B2, “Neuroactive steroids, compositions, and uses thereof” (Sage Therapeutics, Inc., priority 2015, dated 2019).

target: GABAA receptor ([35S]-TBPS binding, rat brain cortical membranes); test: Steroid inhibition of [35S]-TBPS binding (radioligand displacement); details: 3 nM [35S]-TBPS, in the presence of 5 μM GABA
Protocol: TBPS binding assays using rat brain cortical membranes in the presence of 5 μM GABA has been described (Gee et al, J. Pharmacol. Exp. Ther. 1987, 241, 346-353; Hawkinson et al, Mol. Pharmacol. 1994, 46, 977-985; Lewin, A. H et al., Mol. Pharmacol. 1989, 35, 189-194).
Briefly, cortices are rapidly removed following decapitation of carbon dioxide-anesthetized Sprague-Dawley rats (200-250 g). The cortices are homogenized in 10 volumes of ice-cold 0.32 M sucrose using a glass/teflon homogenizer and centrifuged at 1500×g for 10 min at 4° C. The resultant supernatants are centrifuged at 10,000×g for 20 min at 4° C. to obtain the P2 pellets. The P2 pellets are resuspended in 200 mM NaCl/50 mM Na—K phosphate pH 7.4 buffer and centrifuged at 10,000×g for 10 min at 4° C. This washing procedure is repeated twice and the pellets are resuspended in 10 volumes of buffer. Aliquots (100 μL) of the membrane suspensions are incubated with 3 nM [^35S]-TBPS and 5 μL aliquots of test drug dissolved in dimethyl sulfoxide (DMSO) (final 0.5%) in the presence of 5 μM GABA. The incubation is brought to a final volume of 1.0 mL with buffer. Nonspecific binding is determined in the presence of 2 μM unlabeled TBPS and ranged from 15 to 25%. Following a 90 min incubation at room temp, the assays are terminated by filtration through glass fiber filters (Schleicher and Schuell No. 32) using a cell harvester (Brandel) and rinsed three times with ice-cold buffer. Filter bound radioactivity is measured by liquid scintillation spectrometry. Non-linear curve fitting of the overall data for each drug averaged for each concentration is done using Prism (GraphPad). […] The concentration of test compound producing 50% inhibition (IC50) of specific binding and the maximal extent of inhibition (Imax) are determined for the individual experiments with the same model used for the overall data and then the means ±SEM.s of the individual experiments are calculated.
Various compounds are or can be screened to determine their potential as modulators of [^35S]-TBPS binding in vitro. These assays are or can be performed in accordance with the above discussed procedures.

SMILES | IC50 [nM]
COC[C@]12CC[C@@](C)(O)C[C@@H]1CC[C@H]1[C@@H]3CC[C@H](C(=O)Cn4nc5cc(F)cc(F)c5n4)[C@@]3(C)CC[C@@H]12 [Compound 10] | < 10
COC[C@]12CC[C@@](C)(O)C[C@@H]1CC[C@H]1[C@@H]3CC[C@H](C(=O)Cn4nnc5cc(Cl)cnc54)[C@@]3(C)CC[C@@H]12 [Compound 12] | < 10
COC[C@]12CC[C@@](C)(O)C[C@@H]1CC[C@H]1[C@@H]3CC[C@H](C(=O)Cn4nc5cc(Cl)cnc5n4)[C@@]3(C)CC[C@@H]12 [Compound 13] | < 10
COC[C@]12CC[C@@](C)(O)C[C@H]1CC[C@H]1[C@@H]3CC[C@H](C(=O)Cn4cc5ccc(F)cc5n4)[C@@]3(C)CC[C@@H]12 [Compound 14] | < 10
COC[C@]12CC[C@@](C)(O)C[C@H]1CC[C@H]1[C@@H]3CC[C@H](C(=O)Cn4ncc5ccc(F)cc54)[C@@]3(C)CC[C@@H]12 [Compound 15] | < 10
COC[C@]12CC[C@@](C)(O)C[C@H]1CC[C@H]1[C@@H]3CC[C@H](C(=O)Cn4ncc5cc(F)ccc54)[C@@]3(C)CC[C@@H]12 [Compound 16] | < 10
COC[C@]12CC[C@@](C)(O)C[C@H]1CC[C@H]1[C@@H]3CC[C@H](C(=O)Cn4cc5cc(F)ccc5n4)[C@@]3(C)CC[C@@H]12 [Compound 17] | 10 to 50
COC[C@]12CC[C@@](C)(O)C[C@H]1CC[C@H]1[C@@H]3CC[C@H](C(=O)Cn4nnc5ccccc54)[C@@]3(C)CC[C@@H]12 [Compound 18] | < 10
COC[C@]12CC[C@@](C)(O)C[C@H]1CC[C@H]1[C@@H]3CC[C@H](C(=O)Cn4cc5ccccc5n4)[C@@]3(C)CC[C@@H]12 [Compound 19] | < 10
COC[C@]12CC[C@@](C)(O)C[C@H]1CC[C@H]1[C@@H]3CC[C@H](C(=O)Cn4cc(SC)cn4)[C@@]3(C)CC[C@@H]12 [Compound 21] | < 10
COC[C@]12CC[C@@](C)(O)C[C@H]1CC[C@H]1[C@@H]3CC[C@H](C(=O)Cn4cc([S+](C)[O-])cn4)[C@@]3(C)CC[C@@H]12 (some centres unmarked) [Compound 22] | 100 to 500
COC[C@]12CC[C@@](C)(O)C[C@H]1CC[C@H]1[C@@H]3CC[C@H](C(=O)Cn4nc5ccc(Cl)c(F)c5n4)[C@@]3(C)CC[C@@H]12 [Compound 24] | < 10
COC[C@]12CC[C@@](C)(O)C[C@H]1CC[C@H]1[C@@H]3CC[C@H](C(=O)Cn4nnc5ccc(OC)cc54)[C@@]3(C)CC[C@@H]12 [Compound 25] | < 10
COC[C@]12CC[C@@](C)(O)C[C@H]1CC[C@H]1[C@@H]3CC[C@H](C(=O)Cn4nnc5cc(OC)ccc54)[C@@]3(C)CC[C@@H]12 [Compound 26] | < 10
COC[C@]12CC[C@@](C)(O)C[C@H]1CC[C@H]1[C@@H]3CC[C@H](C(=O)Cn4nc5ccc(OC)cc5n4)[C@@]3(C)CC[C@@H]12 [Compound 27] | < 10
COC[C@]12CC[C@@](C)(O)C[C@H]1CC[C@H]1[C@@H]3CC[C@H](C(=O)Cn4nnc5c(OC)cccc54)[C@@]3(C)CC[C@@H]12 [Compound 28] | < 10
COC[C@]12CC[C@@](C)(O)C[C@H]1CC[C@H]1[C@@H]3CC[C@H](C(=O)Cn4nnc5cccc(OC)c54)[C@@]3(C)CC[C@@H]12 [Compound 29] | < 10
COC[C@]12CC[C@@](C)(O)C[C@H]1CC[C@H]1[C@@H]3CC[C@H](C(=O)Cn4nc5cccc(OC)c5n4)[C@@]3(C)CC[C@@H]12 [Compound 30] | < 10
COC[C@]12CC[C@@](C)(O)C[C@H]1CC[C@H]1[C@@H]3CC[C@H](C(=O)Cn4cc(SC)cn4)[C@@]3(C)CC[C@@H]12 [Compound 34] | 10 to 50
COC[C@]12CC[C@@](C)(O)C[C@H]1CC[C@H]1[C@@H]3CC[C@H](C(=O)Cn4cc([S+](C)[O-])cn4)[C@@]3(C)CC[C@@H]12 (some centres unmarked) [Compound 35] | > 500
COC[C@]12CC[C@@](C)(O)C[C@@H]1CC[C@H]1[C@@H]3CC[C@H](C(=O)Cn4ccnc4C#N)[C@@]3(C)CC[C@@H]12 [Compound 36] | 100 to 500
COC[C@]12CC[C@@](C)(O)C[C@@H]1CC[C@H]1[C@@H]3CC[C@H](C(=O)Cn4cc(OC)cn4)[C@@]3(C)CC[C@@H]12 [Compound 37] | 100 to 500
COC[C@]12CC[C@@](C)(O)C[C@@H]1CC[C@H]1[C@@H]3CC[C@H](C(=O)Cn4cc(OC(C)C)cn4)[C@@]3(C)CC[C@@H]12 [Compound 38] | 50 to 100
COC[C@]12CC[C@@](C)(O)C[C@@H]1CC[C@H]1[C@@H]3CC[C@H](C(=O)Cn4cc5c(OC)cccc5n4)[C@@]3(C)CC[C@@H]12 [Compound 40] | 50 to 100

SMILES | IC50 [nM]
COC[C@]12CC[C@@](C)(O)C[C@@H]1CC[C@H]1[C@@H]3CC[C@H](C(=O)Cn4ncc5cccc(OC)c54)[C@@]3(C)CC[C@@H]12 [Compound 41] | 50 to 100
COC[C@]12CC[C@@](C)(O)C[C@@H]1CC[C@H]1[C@@H]3CC[C@H](C(=O)Cn4cc5ccc(OC)cc5n4)[C@@]3(C)CC[C@@H]12 [Compound 42] | 10 to 50
COC[C@]12CC[C@@](C)(O)C[C@@H]1CC[C@H]1[C@@H]3CC[C@H](C(=O)Cn4ncc5cc(OC)ccc54)[C@@]3(C)CC[C@@H]12 [Compound 43] | 50 to 100
COC[C@]12CC[C@@](C)(O)C[C@@H]1CC[C@H]1[C@@H]3CC[C@H](C(=O)Cn4cc5c(OC)cccc5n4)[C@@]3(C)CC[C@@H]12 [Compound 44] | 10 to 50
COC[C@]12CC[C@@](C)(O)C[C@@H]1CC[C@H]1[C@@H]3CC[C@H](C(=O)Cn4ncc5c(OC)cccc54)[C@@]3(C)CC[C@@H]12 [Compound 45] | 50 to 100
COC[C@]12CC[C@@](C)(O)C[C@@H]1CC[C@H]1[C@@H]3CC[C@H](C(=O)Cn4cc5ccncc5n4)[C@@]3(C)CC[C@@H]12 [Compound 46] | 10 to 50
COC[C@]12CC[C@@](C)(O)C[C@@H]1CC[C@H]1[C@@H]3CC[C@H](C(=O)Cn4ncc5cccnc54)[C@@]3(C)CC[C@@H]12 [Compound 47] | 10 to 50
COC[C@]12CC[C@@](C)(O)C[C@@H]1CC[C@H]1[C@@H]3CC[C@H](C(=O)Cn4cc5ccc(OC)cc5n4)[C@@]3(C)CC[C@@H]12 [Compound 48] | 50 to 100
COC[C@]12CC[C@@](C)(O)C[C@@H]1CC[C@H]1[C@@H]3CC[C@H](C(=O)Cn4ncc5ccc(OC)cc54)[C@@]3(C)CC[C@@H]12 [Compound 49] | 50 to 100
COC[C@]12CC[C@@](C)(O)C[C@@H]1CC[C@H]1[C@@H]3CC[C@H](C(=O)Cn4nnc5c(F)c(Cl)ccc54)[C@@]3(C)CC[C@@H]12 [Compound 51] | < 10
COC[C@]12CC[C@@](C)(O)C[C@H]1CC[C@H]1[C@@H]3CC[C@H](C(=O)Cn4cnc(F)c4)[C@@]3(C)CC[C@@H]12 [Compound 52] | 10 to 50
COC[C@]12CC[C@@](C)(O)C[C@@H]1CC[C@H]1[C@@H]3CC[C@H](C(=O)Cn4cnc(F)c4)[C@@]3(C)CC[C@@H]12 [Compound 59] | 100 to 500
COC[C@]12CC[C@@](C)(O)C[C@@H]1CC[C@H]1[C@@H]3CC[C@H](C(=O)Cn4cc(C)cn4)[C@@]3(C)CC[C@@H]12 [Compound 60] | 100 to 500
CCOc1cnn(CC(=O)[C@H]2CC[C@H]3[C@@H]4CC[C@H]5C[C@](C)(O)CC[C@]5(COC)[C@H]4CC[C@]23C)c1 [Compound 61] | 100 to 500
COC[C@]12CC[C@@](C)(O)C[C@H]1CC[C@H]1[C@@H]3CC[C@H](C(=O)Cn4nnnc4C)[C@@]3(C)CC[C@@H]12 [Compound 63] | 100 to 500
COC[C@]12CC[C@@](C)(O)C[C@H]1CC[C@H]1[C@@H]3CC[C@H](C(=O)Cn4ccnc4C)[C@@]3(C)CC[C@@H]12 [Compound 64] | 100 to 500
COC[C@]12CC[C@@](C)(O)C[C@H]1CC[C@H]1[C@@H]3CC[C@H](C(=O)Cn4cc(N)cn4)[C@@]3(C)CC[C@@H]12 [Compound 66] | 10 to 50
COC[C@]12CC[C@@](C)(O)C[C@H]1CC[C@H]1[C@@H]3CC[C@H](C(=O)Cn4cc(C(F)(F)F)cn4)[C@@]3(C)CC[C@@H]12 [Compound 67] | 10 to 50
CC(C)OC[C@]12CC[C@@](C)(O)C[C@H]1CC[C@H]1[C@@H]3CC[C@H](C(=O)Cn4nnc5c(F)c(F)ccc54)[C@@]3(C)CC[C@@H]12 [Compound 68] | < 10
CC(C)OC[C@]12CC[C@@](C)(O)C[C@H]1CC[C@H]1[C@@H]3CC[C@H](C(=O)Cn4nnc5ccc(F)c(F)c54)[C@@]3(C)CC[C@@H]12 [Compound 69] | < 10
CC(C)OC[C@]12CC[C@@](C)(O)C[C@H]1CC[C@H]1[C@@H]3CC[C@H](C(=O)Cn4nc5ccc(F)c(F)c5n4)[C@@]3(C)CC[C@@H]12 [Compound 70] | < 10
CC(C)OC[C@]12CC[C@@](C)(O)C[C@H]1CC[C@H]1[C@@H]3CC[C@H](C(=O)Cn4ncnn4)[C@@]3(C)CC[C@@H]12 [Compound 72] | < 10
COC[C@]12CC[C@@](C)(O)C[C@H]1CC[C@@H]1[C@@H]2CC[C@]2(C)C(C(=O)Cn3nnnc3C)CC[C@@H]12 (some centres unmarked) [Compound 74] | 100 to 500
